Reference: patent US8738114B2, “Systems and methods for measuring and modeling in vivo manganese ion transport in a subject” (Celtrast LLC, priority 2009, dated 2014)

Biological target: NCX (Mus musculus, UniProt P70414)
Assay: In vivo MEMRI Mn^2+ efflux study with NCX inhibition by SEA0400 (dose dependent groups), pharmacokinetic Models 1-3
Settings: for Mn^2+ efflux rate following inhibition of the NCX, % of the initial, pre-SEA0400 administration, rate: Model 2 prediction, maximum inhibition
[1] = Model 1, 10 mg/kg SEA0400 i.p. 1 h post-190 nmoles/g BW MnCl2
[2] = Model 1, 20 mg/kg SEA0400 i.p. 1 h post-190 nmoles/g BW MnCl2
[3] = Model 1, 34 mg/kg SEA0400 i.p. 1 h post-190 nmoles/g BW MnCl2
[4] = Model 1, 50 mg/kg SEA0400 i.p. 1 h post-190 nmoles/g BW MnCl2
[5] = Model 2, 10 mg/kg SEA0400 i.p. 1 h post-190 nmoles/g BW MnCl2
[6] = Model 2, 20 mg/kg SEA0400 i.p. 1 h post-190 nmoles/g BW MnCl2
[7] = Model 2, 34 mg/kg SEA0400 i.p. 1 h post-190 nmoles/g BW MnCl2
[8] = Model 2, 50 mg/kg SEA0400 i.p. 1 h post-190 nmoles/g BW MnCl2
[9] = Model 3, 10 mg/kg SEA0400 i.p. 1 h post-190 nmoles/g BW MnCl2
[10] = Model 3, 20 mg/kg SEA0400 i.p. 1 h post-190 nmoles/g BW MnCl2
[11] = Model 3, 34 mg/kg SEA0400 i.p. 1 h post-190 nmoles/g BW MnCl2
[12] = Model 3, 50 mg/kg SEA0400 i.p. 1 h post-190 nmoles/g BW MnCl2

Procedure: The mice were randomized into three groups for efflux studies: 1) MnCl2 dose dependent (65±0.2, 119±2, 190±3 (Control) and 283±6 nmoles/g body weight MnCl2, n=40 mice) 2) SEA0400 dose dependent (190±1 nmoles/g BW MnCl2 infusion, followed 1 hour later with an i.p. injection of 10±0.2, 20±0.2, 34±0.8 and 50±0.2 mg/kg SEA0400, n=30) 3) Myocardial infarction (MI, 190±0.1 nmoles/g BW MnCl2, n=9)
In order to model the drug pharmacokinetics of SEA0400, and therefore the Mn^2+ transport mechanisms, an equation for the drug plasma concentration (Cp) was used (Eq. [2]), commonly applied to pharmaceutical modeling:
In Eq. [2] F is the fraction of drug absorbed, Vp is the apparent volume of distribution of the drug and D is the drug dose administered. The rate parameters, kel and kabs represent the drug elimination and absorption rates respectively.
The form for the Mn^2+ transfer rate parameter k21 was given by Eq. [3], under the assumption that k21 decreases linearly with increasing SEA0400 plasma concentration, Cp, as in Eq. [2]:
Parameter k21,initial is defined as the pre-pharmaceutical administration transfer parameter, k21(t<1 h). […] All the transfer rate and pharmaceutical parameters were therefore time-independent with the exception of k0 and k21 following SEA0400 administration.
The pharmaceutical absorption and elimination half-live (t1/2abs and t1/2el respectively) are given in Eq. [4] and Eq. [5].
Solutions to the ODEs were acquired using simultaneous 4th Order Runge-Kutta numerical methods in Matlab (Nantick, Mass.). Temporal in vivo cardiac Mn^2+ content data and ex vivo blood Mn^2+ content data were fit simultaneously to acquire least square fits for the first order rate parameters, kab. Least square fits of the pharmaceutical parameters, kabs and kel were also obtained using the SEA0400 groups, assuming that kab was unchanged from the control 190 nmoles/g group. […] The only constraint made by the least square fitting technique was that the transfer rate parameters and pharmaceutical parameters were ≧0.
Least square curve fitting techniques are inherently sensitive to the initial estimates of kab. For a given initial estimate of kab the fit may converge on solutions at local minima, which may not be the global minimum. In order to minimize potential errors caused by this effect, all the models employed a global search over a wide range in parameter space to find the initial estimates of kab corresponding to lowest fit residuals. To use the most realistic initial estimates for the fitting function, simultaneous solutions were obtained for the control 190 nmoles/g heart and 50 mg/kg SEA0400 heart efflux data, as well as the corresponding blood efflux data.
For the SEA0400 groups, a similar set of simultaneous ODEs was used, with k21 modeled as a function of time (Eq. [3]).
k21total and k2comp are the total transfer rates from compartment 2 to the blood, and from compartment 2 to compartments 3 and 4, respectively. These two parameters were estimated via the modeling technique.

kabs drug absorption rate [1]: 671 h⁻¹ | kel drug elimination rate [1]: 1.7 h⁻¹ | kabs drug absorption rate [2]: 672 h⁻¹ | kel drug elimination rate [2]: 0.51 h⁻¹ | kabs drug absorption rate [3]: 680 h⁻¹ | kel drug elimination rate [3]: 0.49 h⁻¹ | kabs drug absorption rate [4]: 66 h⁻¹ | kel drug elimination rate [4]: 0.14 h⁻¹ | kabs drug absorption rate [5]: 68 h⁻¹ | kel drug elimination rate [5]: 1.6 h⁻¹ | kabs drug absorption rate [6]: 149 h⁻¹ | kel drug elimination rate [6]: 0.47 h⁻¹ | kabs drug absorption rate [7]: 115 h⁻¹ | kel drug elimination rate [7]: 0.41 h⁻¹ | kabs drug absorption rate [8]: 118 h⁻¹ | kel drug elimination rate [8]: 0.17 h⁻¹ | Mn^2+ efflux rate following inhibition of the NCX, % of the initial, pre-SEA0400 administration, rate (10 mg/kg SEA0400): 8.2% | Mn^2+ efflux rate following inhibition of the NCX, % of the initial, pre-SEA0400 administration, rate (20 mg/kg SEA0400): 1.8% | Mn^2+ efflux rate following inhibition of the NCX, % of the initial, pre-SEA0400 administration, rate (35 mg/kg SEA0400): 1.6% | Mn^2+ efflux rate following inhibition of the NCX, % of the initial, pre-SEA0400 administration, rate (50 mg/kg SEA0400): 1.0% | kabs drug absorption rate [9]: 85 h⁻¹ | kel drug elimination rate [9]: 1.1 h⁻¹ | kabs drug absorption rate [10]: 118 h⁻¹ | kel drug elimination rate [10]: 0.44 h⁻¹ | kabs drug absorption rate [11]: 9.4 h⁻¹ | kel drug elimination rate [11]: 0.33 h⁻¹ | kabs drug absorption rate [12]: 149 h⁻¹ | kel drug elimination rate [12]: 0.06 h⁻¹ | share of Mn^2+ efflux that occurs via the NCX (model prediction, highest dose of SEA0400): approximately 99%
SMILES: CCOc1ccc(Oc2ccc(OCc3cc(F)ccc3F)cc2)c(N)c1 [SEA0400]
